# System: Oats
# Assay: Glasshouse trial: adjuvant effect when applied with glyphosate to control oats
# Type: in vivo
# Settings: no adjuvant, 14 days after treatment
# Description: In this example, the adjuvant effect of Compositions C and D from Example 1 was compared with a range of commercially available adjuvants when applied with glyphosate in 2 water hardnesses to control oats in a glasshouse.
smiles,measurement,setting,value
"O=C(O)CNCP(=O)(O)O [Glyphosate, glyphosate]",Fresh Weight % of untreated control,"glyphosate 50 g a.i./ha, water hardness 50 ppm CaCO3, oats 1.5-2 leaf",73 % of untreated control
same,Fresh Weight % of untreated control,"glyphosate 50 g a.i./ha, water hardness 300 ppm CaCO3",106 % of untreated control
same,Fresh Weight % of untreated control,"glyphosate 100 g a.i./ha, water hardness 50 ppm CaCO3",52 % of untreated control
same,Fresh Weight % of untreated control,"glyphosate 100 g a.i./ha, water hardness 300 ppm CaCO3",65 % of untreated control
